Results as given in the NIST ThermoML archive (doi:10.1016/j.fluid.2014.04.019).

Assay: xn = mol fraction of the nth substance listed
Details: 101 kPa, Liquid

OCCOCCO [diethylene glycol] + CN(C)C=O
Details	kinematic viscosity, 308.15 K [m2/s]	kinematic viscosity, 313.15 K [m2/s]	kinematic viscosity, 318.15 K [m2/s]	mass density, 308.15 K [kg/m3]	mass density, 313.15 K [kg/m3]	mass density, 318.15 K [kg/m3]
x2 = 0	–	1.45e-05	1.12e-05	–	1103	1099.3
x2 = 0.0714	–	1.07e-05	8.43e-06	–	1093.4	1089.5
x2 = 0.1393	–	8.49e-06	6.68e-06	–	1083.9	1079.8
x2 = 0.2041	–	7.39e-06	5.77e-06	–	1074.6	1070.3
x2 = 0.2683	–	6.18e-06	4.88e-06	–	1065.1	1060.7
x2 = 0.3266	–	5.2e-06	4.16e-06	–	1056.2	1051.7
x2 = 0.3834	–	4.4e-06	3.54e-06	–	1047.3	1042.7
x2 = 0.4384	–	3.74e-06	3.06e-06	–	1038.5	1033.9
x2 = 0.4917	–	3.2e-06	2.64e-06	–	1029.7	1024.9
x2 = 0.5429	–	2.75e-06	2.29e-06	–	1021	1016.2
x2 = 0.5865	2.53e-06	2.41e-06	2.03e-06	1017.3	1013.4	1008.6
x2 = 0.6394	2.16e-06	2.07e-06	1.76e-06	1007.9	1004	999.1
x2 = 0.6819	1.89e-06	1.82e-06	1.56e-06	1000.1	996.2	991.2
x2 = 0.7294	1.64e-06	1.59e-06	1.37e-06	991.1	987.1	982.1
x2 = 0.7721	1.44e-06	1.39e-06	1.22e-06	982.8	978.6	973.6
x2 = 0.813	1.28e-06	1.23e-06	1.09e-06	974.5	970.3	965.2
x2 = 0.8531	1.14e-06	1.1e-06	9.94e-07	966.3	962.1	956.9
x2 = 0.891	1.03e-06	9.92e-07	8.99e-07	958.3	954.1	948.9
x2 = 0.9288	9.23e-07	8.88e-07	8.16e-07	950	945.8	940.7
x2 = 0.9648	8.37e-07	8.06e-07	7.44e-07	942.3	937.9	932.6
